Experimental data from PubChem BioAssay (NCI).
Several values for one entry are separate records, joined by “and”; a condition that tells them apart may be missing. Equal entries are not always repeated.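 Exposure lasted 48 hours, with cells grown in 96-well plates and compounds tested at five concentrations. The concentration for 50% growth inhibition is given as GI50. TGI: concentration producing complete growth inhibition.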

Key:
Assay in all cases: growth of human tumour cells (NCI), 48 h
MALME-3M melanoma = test system: MALME-3M melanoma
HCC-2998 colon = test system: HCC-2998 colon
MDA-MB-435 = test system: MDA-MB-435
LOX IMVI melanoma = test system: LOX IMVI melanoma
UO-31 renal = test system: UO-31 renal
OVCAR-3 ovarian = test system: OVCAR-3 ovarian
KM12 colon = test system: KM12 colon
HL-60(TB) leukemia = test system: HL-60(TB) leukemia

Compound | GI50 (MALME-3M melanoma) [µM] | TGI (MALME-3M melanoma) [µM] | GI50 (HCC-2998 colon) [µM] | TGI (HCC-2998 colon) | GI50 (MDA-MB-435) [µM] | TGI (MDA-MB-435) [µM] | GI50 (LOX IMVI melanoma) [µM] | TGI (LOX IMVI melanoma) [µM] | GI50 (UO-31 renal) [µM] | TGI (UO-31 renal) [µM] | GI50 (OVCAR-3 ovarian) [µM] | TGI (OVCAR-3 ovarian) [µM] | GI50 (KM12 colon) [µM] | TGI (KM12 colon) [µM] | GI50 (HL-60(TB) leukemia) [µM] | TGI (HL-60(TB) leukemia)
COc1ccc(C2=NN(C(N)=S)C(c3ccc4c(c3)OCO4)C2)cc1 (stereo not given) | 3.62 | 43.9 | 2.3 | 5.85 µM | 2.39 | 7.26 | 2.19 | 4.99 | 1.91 | 7.99 | 2.07 | 4.72 | 2.27 | 5.19 | – | –
O=c1nc2n(-c3cccc(Cl)c3)c3ccc([N+](=O)[O-])cc3cc-2c(=O)[nH]1 | – | – | 4.92 | 11 µM | 4.06 | 8.09 | 1.93 | 9.52 | 5.87 | 13 | 1.08 | 4.42 | 3.13 | 7.57 | 1.29 | > 25 µM
CN(C)CCNC(=O)c1cc2c3cc(Cl)ccc3[nH]c2c2ncccc12 | 1.89 | 3.94 | – | – | 1.95 | 4.22 | 1.51 | 2.92 | 1.1 | 2.49 | 11.1 | 29.6 | 3.03 | 13.7 | 1.97 | 4.02 µM
COc1ccc(-c2csc3c2-n2cccc2C3=O)cc1 | – | > 100 | 0.232 | 2.56 µM and 5.8 µM | – | – | 0.0349 | > 100 | 0.049 | > 44.2 | – | 0.264 | 0.0133 | – | 0.00416 | 0.0185 µM and 0.0984 µM
C=CCc1cccc(C=O)c1O | > 100 | > 100 | > 100 | > 100 µM | > 100 | > 100 | 17.3 | > 100 | 70.1 | > 100 | – | – | – | – | 10.6 | 41 µM
O=C1CSC(c2c[nH]c3ccccc23)N1c1cccc(Cl)c1 (stereo not given) | – | – | – | > 100 µM | – | > 100 | – | – | – | > 100 | – | > 100 | – | > 100 | – | > 100 µM
O=C(N/N=C/c1ccc(Cl)cc1)c1ccc(NC(=O)c2ccccn2)cc1 | 33.1 | > 100 | > 100 | > 100 µM | 23.8 | > 100 | 56.1 | > 100 | 11.2 | 38.2 | 14 | 33.6 | 31 | > 100 | – | –
CCOC(=O)c1noc2c1CCc1c-2cn(Cc2ccc(OC)cc2)c1-c1cc(OC)c(OC)c(OC)c1 | – | – | 5.17 | > 100 µM | 0.574 | > 100 | 0.646 | > 100 | 3.44 | > 100 | 0.37 | 10.6 | 0.91 | > 100 | 0.452 | 4.89 µM
NS(=O)(=O)c1ccc(N(/C=C/C(=O)C(F)(F)F)CC(=O)c2ccc(F)cc2)cc1 | 43.1 | 78.9 | 17.7 | 33.8 µM | 26.5 | 79.6 | 13.8 | 34.6 | 31.9 | > 100 | 19.7 | 47.3 | 24.5 | 57.9 | – | –
CCNC1=C(NC(=O)c2ccc(F)cc2)C(=O)c2ccccc2C1=O | – | 47.5 | – | > 100 µM | – | 35.9 | – | – | – | – | – | 85.7 | – | > 100 | – | > 100 µM
O=S(=O)(NCCCNc1cc(-c2cn(-c3ccccc3)nc2-c2cccc(O)c2)ccn1)c1ccc(C(F)(F)F)cc1 | – | – | 1.92 | 3.53 µM | 1.74 | 3.46 | 1.67 | 3.12 | 2.04 | 5.74 | 1.92 | 4.03 | 1.89 | 4.49 | 2.52 | 6.2 µM
O=C(O)c1ccc(N(/C=C/C(=O)C(F)(F)F)Cc2ccc(Cl)cc2)cc1 | – | – | 19.8 | 44.3 µM | 35.5 | > 100 | 21.4 | 51.8 | 1.19 | 15.7 | 25.8 | 72.5 | 23.2 | 59.9 | 40.2 | > 100 µM
Cc1c(Cl)cccc1C(=O)Nc1nc2c(s1)CN(C(=O)Nc1cccc(C(F)(F)F)c1)CC2 | 0.356 | > 50 | 0.647 | 8.52 µM | – | – | 0.226 | 11 | 0.508 | > 50 | 0.14 | 0.539 | 0.174 | > 21.7 | 0.149 | –
